# Experimental data taken from US7371779B2, “Synergistic compositions of N-acylhomoserine lactones and 4-quinolones” (The Secretary of State for Defense Science and Technology, priority 2001, dated 2008).
# pIC50: −log10 of the molar value. Entries after “also recorded” stand apart in the source; their conditions may differ.
# Columns and labels:
# TNF-alpha = TNF-alpha production from LPS-stimulated human PBMC (sandwich ELISA); type: cell-based; settings: for inhibition of LPS induced TNF-α production by human PBMC, in words: LPS-stimulated human PBMC
# Experimental: Bacterial lipopolysaccharide (LPS) stimulates the production of a variety of cytokines, including TNF-alpha, from human PBMC; these cytokines in turn influence the development of T cells, supporting a T helper 1 conducive milieu. Human PBMC prepared from whole blood by buoyant density centrifugation were resuspended in CTCM. […] Following incubation for 24 h at 37° C. in 5% CO2-air, the cell culture supernatants were collected and tested for TNF-alpha levels by ‘sandwich’ ELISA. Briefly, 96-well Nunc MaxiSorp (Life Technologies, Paisley, UK) plates were coated with 50 μl of a 2 μg/ml solution of mouse anti-human TNF-alpha monoclonal antibody (Pharmingen, UK) in 0.05 M carbonate/bicarbonate buffer, pH 9.6 overnight at 4° C. After washing the plates three times with PBS-Tween, which contained phosphate buffered saline (PBS) with 0.5% (vol/vol) Tween 20 (Sigma, Poole, UK), the plates were blocked with 1% (wt/vol) bovine serum albumin (BSA) (Sigma, Poole, UK) at room temperature for 2 h. Following three washes with PBS-Tween, 50 μl of cell culture supernatants were added and incubated overnight at 4° C.; standard human TNF-alpha (Pharmingen, UK) ranging from 2000 to 31.25 pg/ml were included for each plate. After four washes with PBS-Tween, 50 μl of a second antibody, biotinylated mouse anti-human TNF-alpha monoclonal antibody (Pharmingen, UK) was added at 0.5 μg/1 ml diluted in 1% BSA in PBS-Tween and incubated at room temperature for 1 h. Following four washes, the bound biotinylated antibody was detected with 50 μl of a 1:1,000 dilution of Streptavidin-peroxidase (Pharmingen, UK). At the end of an hour incubation at room temperature, the plates were thoroughly washed six times with PBS-Tween and the assay was developed by the addition of 100 μl of 0.1 mg/ml of tetramethyl benzidine subtrate (Sigma, Poole, UK) in 0.1 M sodium acetate buffer, pH 6 containing 0.03% H2O2. The enzyme reaction was stopped with 50 μl of 2.5 M H2SO4 after an incubation of 10 minutes at room temperature and the development was read at 450 nm with a spectrophotometric 96-well plate reader (Dynex).
# hPBMC = assay: Cell proliferation of hPBMC stimulated with anti-CD3 and anti-CD28; type: cell-based, human; settings: four donors; for inhibition of proliferation of hPBMC stimulated via CD3 and CD28, in words: 0.78125 to 100 μM
# Experimental: Anti-CD3 and anti-CD28 antibodies were used to assess the effect of quorum sensing signal molecules (PQS, OdDHL and OHHL) on T-cell proliferation and IL-2 secretion. Proliferation was assessed by the incorporation of [^3H]-thymidine into the DNA of PBMC and the release of cytokines in the culture supernatants was determined by ‘sandwich’ ELISA. Blood specimens were obtained with consent from four healthy human volunteers (aged between 20 and 50 years). Human PBMC were isolated from heparinised whole blood by buoyant density centrifugation over Histopaque 1077 (Sigma, Poole, UK) at 600 g for 20 minutes. PBMC harvested from the ‘buffy’ layers were washed twice with RPMI 1640 medium and resuspended in complete cell culture medium (CTCM) consisting of RPMI 1640 medium with 5% FCS, 2 mM L-glutamine, and 5×10^−5 M 2-mercaptoethanol. The quorum sensing molecules, of which stock solutions of 0.1 M were soluble in DMSO, were initially diluted into CTCM and then tested in triplicate wells at concentrations ranging from 0.78125 to 100 μM in 200 μl of CTCM, containing 100,000 hPBMC which were challenged with 100 ng/ml of mouse anti-human CD3 monoclonal antibody (clone UCHT1; BD Pharmingen, UK) and 5 μg/ml of mouse anti-human CD28 monoclonal antibody (clone CD28.2; BD Pharmingen, UK). hPBMC were incubated for 24 h at 37° C. in 5% CO2-air and 50 μl of culture supernatants were removed for the determination of IL-2 (see IV.II below). The cells were returned for a further 24 h culture, followed by pulsing with 0.25 μCi [^3H]-thymidine (Amersham) in 10 μl volume made up in RPMI 1640 medium. After a further incubation of 24 h, cells were harvested onto 96-well filter plates (Unifilter Filtermate Harvester™, Packard Bioscience Ltd, UK). Following the addition of 25 μl of scintillant (MicroScint-O™; Packard Bioscience Ltd. UK) to each well in the filter plates, the radioactivity in the filters was measured with a β-scintillation counter (TopCount™, Packard Bioscience Ltd, UK) according to manufacturer's specifications. […]
Compound,"pIC50 (TNF-alpha; Experiment III, read-out: IC50 in inhibition of LPS induced production of TNF-α by human PBMC)","inhibition of LPS induced TNF-α production by human PBMC, in words (TNF-alpha; listed as OdDHL)","inhibition of proliferation of hPBMC stimulated via CD3 and CD28, in words (hPBMC; listed as OdDHL)","inhibition of LPS induced TNF-α production by human PBMC, in words (TNF-alpha)",potency relative to OdDHL in inhibition of CD3/CD28 stimulated hPBMC proliferation (hPBMC),"inhibition of proliferation of hPBMC stimulated via CD3 and CD28, in words (hPBMC)"
CCCCCCCCCC(=O)CC(=O)N[C@H]1CCOC1=O [Example 6],4.77,inhibited the secretion,"inhibited, in a dose dependent manner; also recorded: inhibit the proliferation of stimulated hPBMC",,,
CCCCCCCc1[nH]c2ccccc2c(=O)c1O [PQS],,,,not inhibited,consistently more potent than OdDHL,"inhibited, in a dose dependent manner; also recorded: inhibit the proliferation of stimulated hPBMC"
